In patent US10927118B2, “Inhibitors of influenza virus replication and uses thereof” (SUNSHINE LAKE PHARMA CO., LTD., priority 2017, dated 2021):

Key:
in vivo = conditions: SD, rat
Procedure: Pharmacokinetic characteristics of the compounds of the invention in SD rats were evaluated. The compounds disclosed herein were administered in form of a saline solution containing 5% DMSO, 5% Kolliphor HS 15 and 90% Saline. For intravenous administration (iv), the animals were administered with a dose of 1 mg/kg, and blood samples (0.3 mL) were collected at the time points of 0.083, 0.25, 0.5, 1.0, 2.0, 5.0, 7.0 and 24 h after drug administration, then each blood sample was processed to separate plasma by centrifugation at 3000 rpm or 4000 rpm for 10 minutes. For oral administration (po), the animals were administered with a dose of 5 mg/kg, and blood samples (0.3 mL) were collected at the time points of 0.25, 0.5, 1.0, 2.0, 5.0, 7.0 and 24 h after drug administration, then each blood sample was processed to separate plasma by centrifugation at 3000 rpm or 4000 rpm for 10 minutes. Plasma samples were collected and stored at −20° C. or −70° C. until LC/MS/MS analysis.

virus H1N1 A/Weiss/43 = assay: microbe, parasite or virus in culture; type: cell-based; conditions: 120 h; inhibition of CPE of influenza virus A/Weiss/43(H1N1) in MDCK cells, 5 days, CCK-8

## O=C(O)C1C2CCC(CC2)C1Nc1cc(-c2ccco2)nc(-c2c[nH]c3ncncc23)n1 (racemic) [Example 2, (+/−)-trans-3-((6-(furan-2-yl)-2-(7H-pyrrolo[2,3-d]pyrimidin-5-yl)pyrimidin-4-yl)amino)bicyclo[2.2.2]octane-2-carboxylic acid]
In vivo; iv, 1 mg/kg
  AUC(0-inf): 4020 ng·h/mL
  AUC(0-t): 3190 ng·h/mL
  clearance: 10.7 mL/min/kg
In vivo; po, 5 mg/kg
  AUC(0-inf): 12900 ng·h/mL
  AUC(0-t): 12700 ng·h/mL
Virus H1N1 A/Weiss/43
  EC50: 5.19 nM

## Cn1ccc2c(NC3C4CCC(CC4)C3C(=O)O)nc(-c3c[nH]c4ncncc34)nc21 (racemic) [Example 3, (+/−)-trans-3-((7-methyl-7H,7′H-[2,5′-bipyrrolo[2,3-d]pyrimidin]-4-yl)amino)bicyclo[2.2.2]octane-2-carboxylic acid]
In vivo; iv, 1 mg/kg
  AUC(0-inf): 4320 ng·h/mL
  AUC(0-t): 4280 ng·h/mL
  clearance: 9.8 mL/min/kg
In vivo; po, 5 mg/kg
  AUC(0-inf): 15700 ng·h/mL
  AUC(0-t): 15600 ng·h/mL
Virus H1N1 A/Weiss/43
  EC50: 9.41 nM

## CC(C)n1ccc2c(NC3C4CCC(CC4)C3C(=O)O)nc(-c3c[nH]c4ncncc34)nc21 (racemic) [Example 4, (+/−)-trans-3-((7-isopropyl-7H,7′H-[2,5′-bipyrrolo[2,3-d]pyrimidin]-4-yl)amino) bicyclo[2.2.2]octane-2-carboxylic acid]
Virus H1N1 A/Weiss/43
  EC50: 6.56 nM

## O=C(O)C1C2CCC(CC2)C1Nc1nc(-c2c[nH]c3ncncc23)nc(-c2ccco2)c1F (racemic) [Example 7, (+/−)-trans-3-((5-fluoro-6-(furan-2-yl)-2-(7H-pyrrolo[2,3-d]pyrimidin-5-yl)pyrimidin-4-yl)amino)bicyclo[2.2.2]octane-2-carboxylic acid]
Virus H1N1 A/Weiss/43
  EC50: 4.02 nM

## O=C(O)C1C2CCC(CC2)C1Nc1cc(-c2ccoc2)nc(-c2c[nH]c3ncncc23)n1 (racemic) [Example 9, (+/−)-trans-3-((6-(furan-3-yl)-2-(7H-pyrrolo[2,3-d]pyrimidin-5-yl)pyrimidin-4-yl)amino)bicyclo[2.2.2]octane-2-carboxylic acid]
Virus H1N1 A/Weiss/43
  EC50: 9.57 nM

## O=C(O)C1C2CCC(CC2)C1Nc1cc(-c2cc3ccccc3o2)nc(-c2c[nH]c3ncncc23)n1 (racemic) [Example 11, (+/−)-trans-3-((6-(benzofuran-2-yl)-2-(7H-pyrrolo[2,3-d]pyrimidin-5-yl)pyrimidin-4-yl)amino)bicyclo[2.2.2]octane-2-carboxylic acid]
Virus H1N1 A/Weiss/43
  EC50: 14.4 nM

## O=C(O)C1C2CCC(CC2)C1Nc1cc(C#Cc2ccccc2)nc(-c2c[nH]c3ncncc23)n1 (racemic) [Example 12, (+/−)-trans-3-((6-(phenylethynyl)-2-(7H-pyrrolo[2,3-d]pyrimidin-5-yl)pyrimidin-4-yl)amino)bicyclo[2.2.2]octane-2-carboxylic acid]
Virus H1N1 A/Weiss/43
  EC50: 7.24 nM

## O=C(O)C1C2CCC(CC2)C1Nc1nc(-c2c[nH]c3ncncc23)nc(-c2ccccc2)c1F (racemic) [Example 13, (+/−)-trans-3-((5-fluoro-6-phenyl-2-(7H-pyrrolo[2,3-d]pyrimidin-5-yl)pyrimidin-4-yl)amino)bicyclo[2.2.2]octane-2-carboxylic acid]
Virus H1N1 A/Weiss/43
  EC50: 8.68 nM

## Cn1cc(-c2cc(NC3C4CCC(CC4)C3C(=O)O)nc(-c3c[nH]c4ncncc34)n2)cn1 (racemic) [Example 14, (+/−)-trans-3-((6-(1-methyl-1H-pyrazol-4-yl)-2-(7H-pyrrolo[2,3-d]pyrimidin-5-yl)pyrimidin-4-yl)amino)bicyclo[2.2.2]octane-2-carboxylic acid]
Virus H1N1 A/Weiss/43
  EC50: 6.32 nM

## O=C(O)C1C2CCC(CC2)C1Nc1nc(-c2c[nH]c3ncncc23)nc2ccccc12 (racemic) [Example 18, (+/−)-trans-3-((2-(7H-pyrrolo[2,3-d]pyrimidin-5-yl)quinazolin-4-yl)amino) bicyclo[2.2.2]octane-2-carboxylic acid]
Virus H1N1 A/Weiss/43
  EC50: 17.5 nM

## O=C(O)C1C2CCC(CC2)C1Nc1nc(-c2c[nH]c3ncncc23)nc2sccc12 (racemic) [Example 20, (+/−)-trans-3-((2-(7H-pyrrolo[2,3-d]pyrimidin-5-yl)thieno[2,3-d]pyrimidin-4-yl)amino)bicyclo[2.2.2]octane-2-carboxylic acid]
Virus H1N1 A/Weiss/43
  EC50: 19.2 nM

## O=C(O)C1C2CCC(CC2)C1Nc1nc(-c2c[nH]c3ncncc23)ncc1F (stereo not shown) [Control compound A, reference compound]
Virus H1N1 A/Weiss/43
  EC50: > 100000 nM
